Patent publication US8796292B2, “Selective antibacterials for clostridium difficile infections” (GLSynthesis Inc., priority 2009, dated 2014)
≈ marks a conversion by molar mass, not a printed value. Read-outs that look alike come from different tables or passages of the source.

Experiments:
L. casei = test: agar dilution MIC assay of anaerobic bacteria; assay type: cell-based, Lactobacillus casei; details: Lacticaseibacillus casei, Strain no. 1722 (ATCC strain), Table 3
Description: (§1) Each compound was assayed against a panel of anaerobic bacteria in culture, consisting of Gram-positive organisms, such as Lactobacilli, Bifidobacteria, Clostridium spp., and Gram-negative bacteria, such as […] fragilis spp., according to guidelines of the Clinical and Laboratory Standards Institute (CLSI document M11-A7, CLSI, Wayne, Pa., 2007). […] One tenth mL of diluted bacteria containing 500-1000 colony-forming units (CFU) was plated and spread, and the plates incubated at 37° C. for 24-48 hours. MIC (minimum inhibitory concentration) is equivalent to the lowest concentration in μg/ml at which growth, i.e., colony formation, is not observed. […] Bacteria were assayed using a reference agar dilution method. Drug dilutions and drug-supplemented agar plates were prepared manually. The test organisms were maintained frozen at −80° C. The isolates were sub-cultured on Supplemented Brucella Agar (SBA) plates in a Bactron II anaerobic chamber and incubated for 48 hours at 35-36° C. in the Bactron II anaerobe chamber. Following inoculation, the drug-supplemented plates were incubated at 35° C. for 48 hours in the anaerobic environment (5% hydrogen, 5% carbon dioxide, 90% nitrogen) of the Bactron II. The MIC in μg/ml was read per Clinical and Laboratory Standards Institute guidelines.

Ba. fragilis = test: agar dilution MIC assay of anaerobic bacteria; assay type: cell-based; details: Bacteroides fragilis, B. fragilis
Description: as §1

L. acidophilus = test: agar dilution MIC assay of anaerobic bacteria; assay type: cell-based; details: Lactobacillus acidophilus, Strain no. 0681, Table 3
Description: as §1

Bi. brevi = test: agar dilution MIC assay of anaerobic bacteria; assay type: cell-based, Bifidobacterium brevi; details: Bifidobacterium breve; Bi. Breve, Strain no. 3967 (ATCC strain), Table 3
Description: as §1

Bi. longum = test: agar dilution MIC assay of anaerobic bacteria; assay type: cell-based, Bifidobacterium longum; details: Bifidobacterium longum; Bi. Longum, Strain no. 3968 (ATCC strain), Table 3; read-out: MIC
Description: as §1

E. lentum = test: agar dilution MIC assay of anaerobic bacteria; assay type: cell-based, Eubacterium lentum; details: Eggerthella lenta; Eu. Lentum, Strain no. 1274 (ATCC strain), Table 3; read-out: MIC
Description: as §1

C. difficile = test: agar dilution MIC assay of anaerobic bacteria; assay type: cell-based, Clostridium difficile; details: for MIC: Clostridioides difficile, read-out: MIC
Description: as §1

C. diff. (ATCC43255) = test: clindamycin-induced C. diff. infection model in Syrian golden hamsters; assay type: in vivo; details: for % Survivors at 120 hr / Survivors at 24 hr / Survivors at 48 hr / Survivors at 66 hr / Survivors at 72 hr / Survivors at 96 hr: n = 6 hamsters
Excerpt: Compound 359E was given orally as a suspension in 1% carboxymethylcellulose to Syrian Golden hamsters, pretreated subcutaneously with clindamycin and infected orally with C. diff. (ATCC43255) as described in Table 5.

`O=c1[nH]c(NCc2ccc(Cl)c(Cl)c2)nc2ncn(CCCCCN3CCOCC3)c12` [Compound 359E, 7-[5-(N-morpholinyl)pentyl]-2-(3,4-dichlorobenzylamino)-6-oxopurine] showed an MIC (L. casei) of 16 µg/mL (≈ 34.4 µM), an MIC (Ba. fragilis; Micromyx Number 0123 (ATCC strain), Table 2) of over 32 µg/mL and an MIC (Ba. fragilis; Strain no. 0123 (ATCC strain), Gram-negative (control), Table 3) of over 32 µg/mL. The MIC (L. acidophilus) was 2 µg/mL (≈ 4.3 µM), the MIC (Bi. brevi) was over 32 µg/mL and the MIC (Bi. longum) was over 32 µg/mL. The MIC (E. lentum) was over 32 µg/mL, the MIC (C. difficile; C. diff. Strain no. 18285, Table 4) was 8 µg/mL (≈ 17.2 µM) and the MIC (C. difficile; C. diff. Strain no. 19265, Table 4) was 8 µg/mL (≈ 17.2 µM). It also gave an MIC (C. difficile; C. diff. Strain no. 19273, Table 4) of 8 µg/mL (≈ 17.2 µM), an MIC (C. difficile; C. diff. Strain no. 19281, Table 4) of 8 µg/mL (≈ 17.2 µM) and an MIC (C. difficile; C. diff. Strain no. 19291, Table 4) of 4 µg/mL (≈ 8.6 µM). The MIC (C. difficile; C. diff. Strain no. 19369, Table 4) was 8 µg/mL (≈ 17.2 µM), the MIC (C. difficile; C. diff. Strain no. 19382, Table 4) was 2 µg/mL (≈ 4.3 µM) and the MIC (C. difficile; C. diff. Strain no. 19540, Table 4) was 4 µg/mL (≈ 8.6 µM). For the same molecule, the MIC (C. difficile; C. diff. Strain no. 19580, Table 4) was 2 µg/mL (≈ 4.3 µM), the MIC (C. difficile; C. diff. Strain no. 19680, Table 4) was 8 µg/mL (≈ 17.2 µM) and the MIC (C. difficile; C. diff. Strain no. 19681, Table 4) was 8 µg/mL (≈ 17.2 µM). For the same molecule, the MIC (C. difficile; C. diff. Strain no. 19683, Table 4) was 8 µg/mL (≈ 17.2 µM), the MIC (C. difficile; C. diff. Strain no. 19687, Table 4) was 8 µg/mL (≈ 17.2 µM) and the MIC (C. difficile; C. diff. Strain no. 20066, Table 4) was 8 µg/mL (≈ 17.2 µM). For the same molecule, the MIC (C. difficile; C. diff. Strain no. 20152, Table 4) was 8 µg/mL (≈ 17.2 µM), the MIC (C. difficile; C. diff. Strain no. 20307, Table 4) was 8 µg/mL (≈ 17.2 µM) and the MIC (C. difficile; C. diff. Strain no. 20494, Table 4) was 8 µg/mL (≈ 17.2 µM). It also gave an MIC (C. difficile; C. diff. Strain no. 20680, Table 4) of 8 µg/mL (≈ 17.2 µM), an MIC (C. difficile; C. diff. Strain no. 20934, Table 4) of 2 µg/mL (≈ 4.3 µM) and an MIC (C. difficile; C. diff. Strain no. 21099, Table 4) of 8 µg/mL (≈ 17.2 µM). For the same molecule, the MIC (C. difficile; C. diff., Micromyx Number 3579, Table 2) was 2 µg/mL (≈ 4.3 µM), the MIC (C. difficile; C. diff., Micromyx Number 3580, Table 2) was 2 µg/mL (≈ 4.3 µM) and the MIC (C. difficile; C. diff., Micromyx Number 3581, Table 2) was 2 µg/mL (≈ 4.3 µM). It also gave an MIC (C. difficile; C. diff., Micromyx Number 3582 (ATCC strain), Table 2) of 2 µg/mL (≈ 4.3 µM), an MIC (C. difficile; C. diff., Strain no. 3580, Table 3) of 4 µg/mL (≈ 8.6 µM) and an MIC (C. difficile; C. diff., Strain no. 3581, Table 3) of 2 µg/mL (≈ 4.3 µM). It also gave an MIC (C. difficile; C. diff., Strain no. 3582, Table 3) of 8 µg/mL (≈ 17.2 µM), an MIC (C. difficile; C. diff., Strain no. 3584, Table 3) of 2 µg/mL (≈ 4.3 µM) and an MIC (C. difficile; C. diff., Strain no. 3585, Table 3) of 4 µg/mL (≈ 8.6 µM). The MIC (C. difficile; C. diff., Strain no. 3586, Table 3) was 2 µg/mL (≈ 4.3 µM), the MIC (C. difficile; C. diff., Strain no. 3587, Table 3) was 4 µg/mL (≈ 8.6 µM) and the MIC (C. difficile; C. diff., Strain no. 3588, Table 3) was 0.5 µg/mL (≈ 1.07 µM). The MIC (C. difficile; C. diff., Strain no. 3589, Table 3) was 4 µg/mL (≈ 8.6 µM), the MIC (C. difficile; C. diff., Strain no. 4381 (ATCC strain), Table 3) was 2 µg/mL (≈ 4.3 µM) and the “potency and selectivity against C. diff. versus other Gram-positive anaerobes (in words)” value (C. difficile; summary of MIC panels, Tables 1 and 3) was “best profile”. The “% Survivors at 120 hr” value (C. diff. (ATCC43255); 25 mg/kg PO bid for 3 days) was 100%, the “Survivors at 24 hr” value (C. diff. (ATCC43255); 25 mg/kg PO bid for 3 days) was 6 and the “Survivors at 48 hr” value (C. diff. (ATCC43255); 25 mg/kg PO bid for 3 days) was 6. For the same molecule, the “Survivors at 66 hr” value (C. diff. (ATCC43255); 25 mg/kg PO bid for 3 days) was 6, the “Survivors at 72 hr” value (C. diff. (ATCC43255); 25 mg/kg PO bid for 3 days) was 6 and the “Survivors at 96 hr” value (C. diff. (ATCC43255); 25 mg/kg PO bid for 3 days) was 6. The “% Survivors at 120 hr” value (C. diff. (ATCC43255); 50 mg/kg PO bid for 3 days) was 100%, the “Survivors at 24 hr” value (C. diff. (ATCC43255); 50 mg/kg PO bid for 3 days) was 6 and the “Survivors at 48 hr” value (C. diff. (ATCC43255); 50 mg/kg PO bid for 3 days) was 6. For the same molecule, the “Survivors at 66 hr” value (C. diff. (ATCC43255); 50 mg/kg PO bid for 3 days) was 6, the “Survivors at 72 hr” value (C. diff. (ATCC43255); 50 mg/kg PO bid for 3 days) was 6 and the “Survivors at 96 hr” value (C. diff. (ATCC43255); 50 mg/kg PO bid for 3 days) was 6. The “protection from lethal infection with C. diff. (in words)” value (C. diff. (ATCC43255); oral suspension in 1% carboxymethylcellulose, twice daily) was “protected hamsters from lethal infection”.
